In patent US11834431B2, “Crystals of cyclic amine derivative and pharmaceutical use thereof” (Toray Industries, Inc., priority 2016, dated 2023):
Read-outs that look alike come from different tables or passages of the source.

Key:
[1] = Evaluation of storage stability, Form A crystal versus amorphous matter (HPLC purity); type: physicochemical; conditions: for Chemical purity, After storage / Decomposition product increased by not less than 0.15% after storage / Optical purity, After storage: airtight state, listed as Form A
fibromyalgia model rats = assay: Analgesic effect on allodynia in fibromyalgia model rats (von Frey, 50% response threshold); type: in vivo, rat; conditions: measured 3 hours after administration, Day 7, compared to negative control group
Protocol: The analgesic effect of the crystal of compound (I) or the pharmacologically acceptable salt thereof against fibromyalgia syndrome was evaluated using fibromyalgia model rats (Sluka et al., Journal of Pharmacology and Experimental Therapeutics, 2002, vol. 302, pp. 1146-1150; Nagakura et al., Pain, 2009, vol. 146, pp. 26-33; Sluka et al., Pain, 2009, vol. 146, pp. 3-4). Form A crystal of compound (I) was used as a crystal of compound (I) or the pharmacologically acceptable salt thereof for evaluation.
The above model rats were prepared as follows. In experiments, 6-to 7-week-old SD male rats were used for 5 or 6 cases per group. 100 μL of acidic physiological saline adjusted to pH 4.0 was administered twice to the gastrocnemius muscle of the right hind paw of each rat (the day of the administration of acidic physiological saline was defined as Day 1 after the start of the experiment, and single dose administrations were carried out on Days 1 and 6 after the start of the experiment) under inhalation anesthesia with isoflurane. The thus prepared group was determined to be an acidic physiological saline group. As a control for the model, a group treated with a physiological saline instead of an acidic physiological saline was determined to be a physiological saline group.
Allodynia observed in fibromyalgia model rats was measured using a von Frey filaments according to a method described in a known publication (Chaplan et al., Journal of Neuroscience Methods, 1994, vol. 53, pp. 55-63) and a 50% response threshold (g) was determined. On Day 7 after the start of the experiment, allodynia was measured 3 hours after oral administration of Form A crystal of compound (I), and the analgesic effect was evaluated. Allodynia of the acidic physiological saline group was measured before oral administration of Form A crystal of compound (I). […] Allodynia was measured 3 hours after the oral administration of the crystal of compound (I), and the analgesic effect was evaluated. […]

[2] = Evaluation of solubility in Japanese Pharmacopoeia test fluids; type: physicochemical; conditions: thermodynamic from solid
Protocol: Form A crystal of compound (I) (100 mg) was weighed into a borosilicate glass vial, and the 1st fluid for disintegration test/1st fluid for dissolution test of the Japanese Pharmacopoeia 16th edition (pH 1.2)(1 mL) or the 2nd fluid for disintegration test of the Japanese Pharmacopoeia 16th edition (pH 6.8)(1 mL) was added in a temperature and humidity test chamber (Amefrec Co., Ltd.; NO DOORα) adjusted to 37° C., followed by stirring. Form B crystal of ethane disulfonate of compound (I) (10 mg) was weighed into a borosilicate glass vial, and the 2nd fluid for disintegration test of the Japanese Pharmacopoeia 16th edition (pH 6.8) (0.1 mL) was added in a temperature and humidity test chamber (Amefrec Co., Ltd.; NO DOORα) adjusted to 37° C., followed by stirring. After 30 minutes, the inside of each vial was visually checked, and it was confirmed that each crystal was completely dissolved.

[3] = 40° C., relative humidity 75%, 8 weeks

CN(C)C1CCN(C(=O)C[C@H](O)c2nccn2C)CC1 [Form A crystal, (S)-1-(4-(dimethylamino)piperidin-1-yl)-3-hydroxy-3-(1-methyl-1H-imidazol-2-yl)propan-1-one]
Chemical purity, After storage [1, 3]: 99.9%
Decomposition product increased by not less than 0.15% after storage [1, 3]: None
Optical purity, After storage [1, 3]: 98.8 % ee
Chemical purity, After storage ([1]; 60° C., 4 weeks): 99.8%
Decomposition product increased by not less than 0.15% after storage ([1]; 60° C., 4 weeks): None
Optical purity, After storage ([1]; 60° C., 4 weeks): 98.8 % ee
Chemical purity, Initial value ([1]; before storage): 99.9%
Optical purity, Initial value ([1]; before storage): 98.6 % ee
improvement of allodynia (50% response threshold) (fibromyalgia model rats; oral 1 mg/kg): significant improvement
improvement of allodynia (50% response threshold) (fibromyalgia model rats; oral 10 mg/kg): significant improvement
solubility at 30 min ([2]; Japanese Pharmacopoeia test fluids, text summary of Table 5, 37° C., read-out: solubilities): ≥ 100 mg/mL
solubility at 30 min ([2]; simulated gastric fluid, 1st fluid for disintegration test/1st fluid for dissolution test of the Japanese Pharmacopoeia 16th edition (pH 1.2), 37° C., 30 minutes, read-out: Solubility (37° C.)): > 100 mg/mL
